{"source": "patent US20230094922A1", "about": "“METHODS OF THERAPEUTIC PROGNOSTICATION” (GENETIKAPLUS LTD., priority 2020, published 2023)", "key": {"[1]": {"tested_on": "iPSC-derived cortical neurons", "experiment": "Dendritic spine length analysis, confocal imaging", "assay_type": "cell-based, human", "description": "FIG. 8. Average dendritic spine length. Dendritic spine length was analyzed using confocal microscopy in samples treated with Bupropion. For imaging of dendritic spines, images were acquired using the Nikon Confocal A1R with a 60× objective and a 2× digital zoom in z-stacks. Analysis was performed using Neurolucida software. FIGS. 9A-9B. Average dendritic spine length in specific spine types. […] For imaging of dendritic spines, images were acquired using the Nikon Confocal A1R with a 60× objective and a 2× digital zoom in z-stacks. Analysis was performed using Neurolucida software. iPSC differentiation into neurons-iPSCs were seeded at a density of 3×10^6 cells/well on a hESC-qualified Matrigel pre-coated 6-well plate and incubated at 37° C., 5% CO2 overnight. Differentiation was initiated the following day (day 0) after verifying that 100% confluency was reached. Differentiation media was added daily according to the following order: […]7 (day 15 onward) similar to a previously published protocol developed by for rapid differentiation to cortical neurons. The components of the described media, Q1-7, are provided in Appendix 1. Cells were assessed for differentiation efficiency and cell death on a daily basis. On day 9, differentiated neurons were re-plated on either 96-well plates (destined for staining) or 12-well plates (destined for RNA extraction) that were coated with 15 μg/mL Poly-ornithine diluted in PBS (overnight incubation at 37° C.), followed by 1 μg/mL Laminin and 2 μg/mL Fibronectin diluted in PBS (overnight incubation at 37° C.): Neurons were first rinsed with pre-warmed PBS and 1 ml/well of Accutase was added for 35 minutes at 37° C., 5% CO2. DNAse1 (0.5 mg/mL) was then added for 10 additional minutes. 3 ml of pre-warmed Neurobasal media was added to each well and neurons were gently collected using a 5 ml […]. Wells were then verified for the presence of any remaining neurons. Neurons were spun down and resuspended in Q6 media. Neurons were seeded at a density of 150,000 cells/cm^2 placed back at 37° C. Following four hours of incubation, media was changed to Q6 media (150 μl per 96-well and 1 ml per 12-well). […] For dendritic arborization analysis, pre/post-synaptic markers and colocalization analysis; α-Syn, PSD95 and MAP2 primary antibodies were used. Following washes, fluorophore-coupled secondary antibodies were incubated in the blocking solution for 1 hour at room temperature. The cells were counter-stained with 4',6-diamidino-2-phenylindole (DAPI) for nuclei detection for 15 minutes at room temperature followed by washes with PBS. […] Neuronal and synaptic morphology was assessed using the Neurolucida software, pre- and post-synaptic marker analysis was performed using CellProfiler and total dendritic length was measured using Fiji software."}, "[2]": {"tested_on": "iPSC-derived cortical neurons", "experiment": "Pre- and post-synaptic marker (Synapsin, PSD95) puncta and colocalization imaging analysis", "assay_type": "cell-based, human", "details": "for intact synapses (colocalization of pre- and post-synaptic terminals), treated vs untreated: 7 days after treatment (Bupropion also 3 days)", "description": "iPSC differentiation into neurons-iPSCs were seeded at a density of 3×10^6 cells/well on a hESC-qualified Matrigel pre-coated 6-well plate and incubated at 37° C., 5% CO2 overnight. Differentiation was initiated the following day (day 0) after verifying that 100% confluency was reached. Differentiation media was added daily according to the following order: […]7 (day 15 onward) similar to a previously published protocol developed by for rapid differentiation to cortical neurons. The components of the described media, Q1-7, are provided in Appendix 1. Cells were assessed for differentiation efficiency and cell death on a daily basis. On day 9, differentiated neurons were re-plated on either 96-well plates (destined for staining) or 12-well plates (destined for RNA extraction) that were coated with 15 μg/mL Poly-ornithine diluted in PBS (overnight incubation at 37° C.), followed by 1 μg/mL Laminin and 2 μg/mL Fibronectin diluted in PBS (overnight incubation at 37° C.): Neurons were first rinsed with pre-warmed PBS and 1 ml/well of Accutase was added for 35 minutes at 37° C., 5% CO2. DNAse1 (0.5 mg/mL) was then added for 10 additional minutes. 3 ml of pre-warmed Neurobasal media was added to each well and neurons were gently collected using a 5 ml […]. Wells were then verified for the presence of any remaining neurons. Neurons were spun down and resuspended in Q6 media. Neurons were seeded at a density of 150,000 cells/cm^2 placed back at 37° C. Following four hours of incubation, media was changed to Q6 media (150 μl per 96-well and 1 ml per 12-well). […] For dendritic arborization analysis, pre/post-synaptic markers and colocalization analysis; α-Syn, PSD95 and MAP2 primary antibodies were used. Following washes, fluorophore-coupled secondary antibodies were incubated in the blocking solution for 1 hour at room temperature. The cells were counter-stained with 4',6-diamidino-2-phenylindole (DAPI) for nuclei detection for 15 minutes at room temperature followed by washes with PBS. Imaging was performed using Nikon Spinning Disk Confocal microscope. For imaging of pre- and post-synaptic markers, images were acquired with a 100× objective in z-stacks. For dendritic arborization analysis, images were acquired with a 20× objective in z-stacks. For imaging of dendritic spines, during culture treatment described in materials and methods, cells were infected at Day 20 with human syn-GFP or mKate virus and stained for GFP or mKate. Cells were fixed as described at day 35 and stained with antibodies against GFP or mKate respectively. Images were acquired using the Nikon Confocal Alit with a 60× objective and a 2× digital zoom in z-stacks and using the Nikon spinning disk Microscope with a 100× objective in z-stacks. Neuronal and synaptic morphology was assessed using the Neurolucida software, pre- and post-synaptic marker analysis was performed using CellProfiler and total dendritic length was measured using Fiji software. Immunohistochemical examination was carried out on the induced neuronal cells."}}, "data": [{"smiles": "CC(NC(C)(C)C)C(=O)c1cccc(Cl)c1", "note": "(stereo not drawn) [Bupropion, 3-Chloro-N-tert-butyl-β-keto-α-methylphenethylamin]", "values": [{"measurement": "total dendritic spine length (average), after treatment", "setting": "[1]; cells derived from non-responders", "result": "no difference"}, {"measurement": "total dendritic spine length (average), after treatment", "setting": "[1]; cells derived from responders", "result": "significant increase"}, {"measurement": "specific spine types (mushroom, stubby, filopodia, thin), after treatment", "setting": "[1]; cells from non-responders", "result": "increase in the number of stubby spines"}, {"measurement": "specific spine types (mushroom, stubby, filopodia, thin), after treatment", "setting": "[1]; responder's cells", "result": "significant increase in the number of mushroom, stubby and thin spines"}, {"measurement": "density of post-synaptic terminals (PSD95 puncta), responders vs non-responders", "setting": "[2]; after treatment", "result": "increase in density"}, {"measurement": "intact synapses, responders vs non-responders", "setting": "[2]; after treatment", "result": "increase"}, {"measurement": "size of PSD95 puncta (perimeter), responders vs non-responders", "setting": "[2]; at baseline and after treatment", "result": "reduced"}, {"measurement": "levels of pre-synaptic terminals (Synapsin puncta), responders vs non-responders", "setting": "[2]; both before and after treatment", "result": "significantly higher"}, {"measurement": "pre-synaptic terminals (Synapsin puncta density), following treatment", "setting": "[2]; both responders and non-responders", "result": "increase"}, {"measurement": "Synapsin puncta perimeter size, effect of treatment", "setting": "[2]; cells from non-responders", "result": "reduction in puncta perimeter size"}, {"measurement": "Synapsin puncta perimeter size, effect of treatment", "setting": "[2]; cells from responders", "result": "increase in puncta perimeter size"}, {"measurement": "intact synapses (colocalization of pre- and post-synaptic terminals), treated vs untreated", "setting": "[2]; neurons from non-responders", "result": "increased intact synapses"}, {"measurement": "density of post-synaptic terminals (distance between PSD95 puncta), after vs before treatment", "setting": "[2]; neurons from responders, 7 days after treatment", "result": "significantly increased"}, {"measurement": "intact synapses (colocalization of pre- and post-synaptic terminals), treated vs untreated", "setting": "[2]; neurons from responders", "result": "increased intact synapses"}, {"measurement": "size of PSD95 puncta (perimeter), effect of treatment", "setting": "[2]; responders and non-responders", "result": "no significant effect"}]}]}
